Experimental data from the Deep4Chem optical property database.

Experiment: photoluminescence quantum yield (fraction); solvent given as SMILES
[1] = in O=P(c1ccccc1)(c1ccccc1)c1ccccc1Oc1ccccc1P(=O)(c1ccccc1)c1ccccc1

Cn1c(/C=C/c2ccc(/C=C/c3nc4ccccc4[nH]3)cc2)[n+](C)c2ccccc21
photoluminescence quantum yield (in C1CCOC1): 0.157 | photoluminescence quantum yield (in CC#N): 0.109 | photoluminescence quantum yield (in CC(C)=O): 0.103 | photoluminescence quantum yield (in CN(C)C=O): 0.12 | photoluminescence quantum yield (in CO): 0.067 | photoluminescence quantum yield (in CS(C)=O): 0.114 | photoluminescence quantum yield (in O): 0.044

CCCN1c2ccccc2Sc2cc(/C=C\c3cc(=O)oc4cc(C)c(Cl)cc34)ccc21
photoluminescence quantum yield (in ClC(Cl)Cl): 0.77

CN(C)c1ccc2nc(-c3ccc(/C=N/Nc4ccccc4)cc3)sc2c1
photoluminescence quantum yield (in C1CCCCC1): 0.023 | photoluminescence quantum yield (in CC#N): 0.067 | photoluminescence quantum yield (in CO): 0.026 | photoluminescence quantum yield (in ClC(Cl)Cl): 0.057

F[Si](c1c2ccccc2cc2ccccc12)(c1c2ccccc2cc2ccccc12)c1c2ccccc2cc2ccccc12
photoluminescence quantum yield (in C1CCOC1): 0.033 | photoluminescence quantum yield (in ClC(Cl)Cl): 0.036

CN1CCCc2cc(C3=Cc4cccc[n+]4[B-](F)(F)O3)ccc21
photoluminescence quantum yield (in ClC(Cl)Cl): 0.55

COc1cccc(C2=C3C=C(/C=C/C(=O)OC(C)(C)C)C=[N+]3[B-](F)(F)n3cccc32)c1
photoluminescence quantum yield (in ClCCl): 0.09

Fc1ccc(/C=C/c2nc3c4ccccc4c4ccccc4c3o2)cc1
photoluminescence quantum yield (in CC#N): 0.24

C(=C\c1cnc2ccccc2n1)/c1ccc(-c2ccc(N(c3ccccc3)c3ccccc3)cc2)cc1
photoluminescence quantum yield (in ClCCl): 0.35

CCCCCCCCCCCCN1C(=O)c2ccc3c4ccc5c6c(ccc(c7ccc(c2c37)C1=O)c64)C(=O)N(CCCCCCCCCCCC)C5=O
photoluminescence quantum yield (in CN(C)C=O): 1

CCCCNC(=O)c1nc2c(N(C)C)nc(N(C)C)nc2n1Cc1ccccc1
photoluminescence quantum yield (in C1COCCO1): 0.95 | photoluminescence quantum yield (in CC#N): 0.95 | photoluminescence quantum yield (in CO): 0.89 | photoluminescence quantum yield (in ClCCl): 0.87

CCCCc1cc(-c2cccc(COC)c2)oc1-c1cccc(-c2cc(CCCC)c(-c3cccc(-c4oc(-c5cccc(-c6oc(-c7cccc(COC)c7)cc6CCCC)c5)cc4CCCC)c3)o2)c1
photoluminescence quantum yield (in ClC(Cl)Cl): 0.23

COc1ccc(N(c2ccc(OC)cc2)c2ccc3c(c2)C2(c4cc(N(c5ccc(OC)cc5)c5ccc(OC)cc5)ccc4C=C3)c3ccccc3-c3ccccc32)cc1
photoluminescence quantum yield (in ClCCl): 0.9

CCCCn1c(-c2ccc(-c3nnc(-c4ccc5ccccc5c4)o3)cc2)nc2c3ccccc3c3ccccc3c21
photoluminescence quantum yield (in ClCCl): 0.75

CC(C)(C)OC(=O)NC(Cc1ccccc1)C(=O)OCc1ccc2c3cccc4cccc(c5cccc1c52)c43 (stereo not drawn)
photoluminescence quantum yield (in CCO): 0.86

CCOC(=O)C1=C(C(=O)OCC)C2(c3ccccc3-c3c(Br)cc(Br)cc32)C2(/C=C/c3ccc(Cl)cc3)c3cc(OC)c(OC)cc3CCN12 (stereo not drawn)
photoluminescence quantum yield (in ClCCl): 0.00075

COC(=O)C12N=N[C@](C(=O)OC)(C3C4CCC(C4)C31)C1[C@@H]3CC[C@@H](C3)[C@H]12 (stereo partly drawn)
photoluminescence quantum yield (in CC#N): 0.09

COc1cc(/C=C/c2nc3ccccc3s2)c(OC)cc1/C=C/c1nc(C)nc(C)n1
photoluminescence quantum yield (in C1CCOC1): 0.94 | photoluminescence quantum yield (in CC#N): 0.86 | photoluminescence quantum yield (in ClC(Cl)Cl): 0.88 | photoluminescence quantum yield (in ClCCl): 0.86

Cc1ccccc1-c1c2ccc(=[N+]3CCCCC3)cc-2oc2cc(N3CCCCC3)ccc12
photoluminescence quantum yield (in CCO): 0.28 | photoluminescence quantum yield (in ClCCl): 0.89

COc1ccc(-c2c3cc4ccccc4cc3c(C#Cc3ccccc3)c3cc4ccccc4cc23)cc1
photoluminescence quantum yield (in ClCCl): 0.02

CCCCCCCCCCCCOc1cc2c3c(ccc4c5c(NC6CCCCC6)cc6c7c(ccc(c1c34)c75)C(=O)N(C1CCCCC1)C6=O)C(=O)N(C1CCCCC1)C2=O
photoluminescence quantum yield (in ClC(Cl)Cl): 0.01

CCOC(=O)CN(CC(=O)OCC)c1ccc(-c2cc(-c3ccccn3)nc(-c3ccccn3)c2)cc1
photoluminescence quantum yield (in CC#N): 0.37 | photoluminescence quantum yield (in CCOC(C)=O): 0.48 | photoluminescence quantum yield (in CN(C)C=O): 0.31 | photoluminescence quantum yield (in CS(C)=O): 0.34 | photoluminescence quantum yield (in c1ccccc1): 0.5

CNc1ccc2nc3cc(Cl)c(Cl)cc3nc2c1
photoluminescence quantum yield (in CCO): 0.06

CCn1c(=O)nc2n(C)c3cc(C)ccc3nc-2c1=O
photoluminescence quantum yield (in C1COCCO1): 0.14 | photoluminescence quantum yield (in CC#N): 0.14 | photoluminescence quantum yield (in CO): 0.11 | photoluminescence quantum yield (in ClCCCl): 0.12

Cc1cc(C)c(B(c2c(C)cc(C)cc2C)c2cc3cc(N(C)C)c4ccccc4c3c3c2ccc2ccccc23)c(C)c1
photoluminescence quantum yield (in C1CCCCC1): 0.36 | photoluminescence quantum yield (in C1CCOC1): 0.21 | photoluminescence quantum yield (in CC#N): 0.13 | photoluminescence quantum yield (in ClC(Cl)Cl): 0.2 | photoluminescence quantum yield (in c1ccccc1): 0.3

c1cc2c3c(c1)ccc1[n+]3[B-]3(Oc4cccc5ccc6[n+](c45)[B-](O2)(O3)n2c-6cc3c4ccccc4c4ccccc4c32)n2c-1cc1c3ccccc3c3ccccc3c12
photoluminescence quantum yield (in ClCCl): 0.89

C(=C\c1ncc(-c2ccc(OCc3ccccc3)c(OCc3ccccc3)c2)o1)/c1cccc(N2CCCC2)c1
photoluminescence quantum yield (in ClCCl): 0.35

CCCCCCCCCCCCOc1cc(C(=O)Nc2ccc(-c3ccc4c(c3)C(=O)c3cc(-c5ccc(NC(=O)c6cc(OCCCCCCCCCCCC)c(OCCCCCCCCCCCC)c(OCCCCCCCCCCCC)c6)cc5)ccc3-4)cc2)cc(OCCCCCCCCCCCC)c1OCCCCCCCCCCCC
photoluminescence quantum yield (in C1CCOC1): 0.06

C/C=C/c1cccc(OC)c1
photoluminescence quantum yield (in CC#N): 0.24 | photoluminescence quantum yield (in CCCCCC): 0.31

CCCCCCc1cc2/c(=C(\C#N)C(=O)OC)s/c(=c3/s/c(=C(/C#N)C(=O)OC)c4cc(CCCCCC)sc34)c2s1
photoluminescence quantum yield (in Cc1ccccc1): 0.086

CC(C)(C)Nc1oc(C=Cc2ccccc2)c(C(=O)OC(C)(C)C)c1C(=O)OC(C)(C)C
photoluminescence quantum yield (in CC#N): 0.311

CCCCCCc1ccc(-n2c3[n+](c4c5ccccc5c5ccccc5c42)[B-](C)(C)c2cc(N(c4ccccc4)c4ccccc4)ccc2-3)cc1
photoluminescence quantum yield (in C1CCOC1): 0.86 | photoluminescence quantum yield (in CC#N): 0.73 | photoluminescence quantum yield (in Cc1ccccc1): 0.83 | photoluminescence quantum yield (in ClCCl): 0.88

Cc1ccc(N(c2ccc(C)cc2)c2c3ccccc3c(N(c3ccc(C)cc3)c3ccc(C)cc3)c3ccccc23)cc1
photoluminescence quantum yield (in Cc1ccccc1): 0.95

Cc1ccc2[nH]c(-c3ccc(-c4ccc(-c5ccc(-c6nc7cc(C)ccc7[nH]6)cc5)cc4)cc3)nc2c1
photoluminescence quantum yield (in CN(C)C=O): 0.94

CCOC(CN1C(=O)C2=C(c3cc4cc(C(C)(C)C)cc(C(C)(C)C)c4o3)N(CC(OCC)OCC)C(=O)C2=C1c1cc2cc(C(C)(C)C)cc(C(C)(C)C)c2o1)OCC
photoluminescence quantum yield (in ClC(Cl)Cl): 0.75

CCCCC1(CCCC)c2cc(C#Cc3ccc4ccc5cccc6ccc3c4c56)ccc2-c2ccc(C#Cc3ccc4ccc5cccc6ccc3c4c56)cc21
photoluminescence quantum yield (in Cc1ccccc1): 0.99

CN(C)c1ccc(-c2nc(-c3ccc(N(C)C)cc3)c3ccccc3n2)cc1
photoluminescence quantum yield (in ClCCl): 0.8

N#Cc1c(N2CCCC2)cc(-c2ccccc2)c2c1-c1cccc3cccc-2c13
photoluminescence quantum yield (in O): 0.25

CC(C)(C)c1ccc2c(c1)c1cc(C(C)(C)C)ccc1n2-c1cc[n+]2c(c1)-c1ccccc1O[B-]2(F)F
photoluminescence quantum yield [1]: 0.74

CCn1c2ccccc2c2ccc(C#N)cc21
photoluminescence quantum yield (in C1CCCCC1): 0.12

CCCC1=Cc2nc1ccc1[nH]c(cc1CCO)c1nc(ccc3[nH]c2cc3CCC)C(CCO)=C1
photoluminescence quantum yield (in Cc1ccccc1): 0.4

F[B-]1(F)n2c(cc3sc4ccccc4c32)C(c2ccc(I)cc2)=C2C=c3sc4ccccc4c3=[N+]21
photoluminescence quantum yield (in ClC(Cl)Cl): 0.05

N#Cc1ccc2c(c1)C1(c3cc(C#N)ccc3-2)c2ccccc2N(c2ccccc2)c2ccccc21
photoluminescence quantum yield (in Cc1ccccc1): 0.47

COc1ccc2c(c1)c1cc(OC)ccc1n2-c1nc2ccccc2nc1-n1c2ccc(OC)cc2c2cc(OC)ccc21
photoluminescence quantum yield (in Cc1ccccc1): 0.13

CCCCC(CC)Cn1c2cc(C#N)ccc2c2ccc(C#Cc3ccc4ccc5c(C#Cc6ccc7c8ccc(C#N)cc8n(CC(CC)CCCC)c7c6)cc(C#Cc6ccc7c8ccc(C#N)cc8n(CC(CC)CCCC)c7c6)c6ccc3c4c56)cc21 (stereo not drawn)
photoluminescence quantum yield (in ClCCl): 0.64

c1cc2ccc3cc4[nH]ccc4c4ccc(c1)c2c34
photoluminescence quantum yield (in CCOC(C)=O): 0.95

CCCCCCN1C(=O)c2cccc3c(-c4ccc(-c5cc(-c6ccc(C)cc6)n(-c6ccccc6)n5)s4)ccc(c23)C1=O
photoluminescence quantum yield (in ClCCl): 0.36

COc1cccc2cc(-c3cc4cccc(OC)c4oc3=O)oc12
photoluminescence quantum yield (in CS(C)=O): 0.11

CCOC(=O)c1c2c3c(ccc([N+](=O)[O-])c3c3cc4c(cc13)[Si](C)(C)O[Si]4(C)C)N(C)C2=O
photoluminescence quantum yield (in CC#N): 0.3

CCCCCCCCCCCCC1(CCCCCCCCCCCC)c2cc(-c3ccc(C=C4C(=O)c5ccccc5C4=O)cc3)ccc2-c2ccc(-c3ccc(C=C4C(=O)c5ccccc5C4=O)cc3)cc21
photoluminescence quantum yield (in C1CCOC1): 0.046 | photoluminescence quantum yield (in CC(C)=O): 0.121 | photoluminescence quantum yield (in CCCCCC): 0.008 | photoluminescence quantum yield (in CS(C)=O): 0.228 | photoluminescence quantum yield (in Cc1ccccc1): 0.012 | photoluminescence quantum yield (in ClC(Cl)Cl): 0.013

Cn1c(=O)cc(C(=O)c2ccccc2)c2sc(-c3ccc(N(c4ccccc4)c4ccccc4)cc3)cc21
photoluminescence quantum yield (in ClCCl): 0.05

CCC12N=N[C@](CC)(C3C4CCC(C4)C31)C1[C@@H]3CC[C@@H](C3)[C@H]12 (stereo partly drawn)
photoluminescence quantum yield (in CC#N): 0.19

CC1(C)c2ccccc2N(c2ccc(-c3nc([C@]45CC6CC(C[C@@H](C6)C4)C5)nc([C@]45C[C@H]6C[C@@H](C[C@H](C6)C4)C5)n3)cc2)c2ccccc21
photoluminescence quantum yield (in CC(C)(C)c1ccc(-n2c3ccc([Si](c4ccccc4)(c4ccccc4)c4ccccc4)cc3c3cc([Si](c4ccccc4)(c4ccccc4)c4ccccc4)ccc32)cc1): 0.83

O=c1c2cc(C#Cc3ccccc3)ccc2nc2ccc(C#Cc3ccccc3)cn12
photoluminescence quantum yield (in ClCCl): 0.41

CC1(C)c2ccccc2N(c2ccc(-c3cccc(C#N)c3)cc2)c2ccccc21
photoluminescence quantum yield (in Cc1ccccc1): 0.112 | photoluminescence quantum yield (in N#Cc1ccc2c(c1)c1ccccc1n2-c1cccc(-n2c3ccccc3c3ccccc32)c1): 0.15

COc1ccc(-c2nc(N)nc(C#N)c2C#N)cc1OC
photoluminescence quantum yield (in C1COCCO1): 0.0073 | photoluminescence quantum yield (in CC#N): 0.0893 | photoluminescence quantum yield (in CC(C)=O): 0.0272 | photoluminescence quantum yield (in CCO): 0.0105 | photoluminescence quantum yield (in CCOC(C)=O): 0.0185 | photoluminescence quantum yield (in CO): 0.0143

CCCCc1ccc2ccc3c(CCCC)cc(CCCC)c4ccc1c2c34
photoluminescence quantum yield (in CCCCCC): 0.49 | photoluminescence quantum yield (in CO): 0.6 | photoluminescence quantum yield (in ClCCl): 0.43

CC(C)(C)c1ccc2c(c1)c1cc(C(C)(C)C)ccc1n2-c1ccc(-c2nc(-c3ccc(P(=O)(c4ccccc4)c4ccccc4)cc3)nc(-c3ccc(P(=O)(c4ccccc4)c4ccccc4)cc3)n2)cc1
photoluminescence quantum yield [1]: 0.96

CCN(CC)c1ccc(-c2nc(Oc3ccc(-c4nc5ccc(Cl)cc5o4)cc3)nc(Oc3ccc(-c4nc5ccc(Cl)cc5o4)cc3)n2)cc1
photoluminescence quantum yield (in CN(C)C=O): 0.0179
